Reference: PMC5960634 (Biochemical pharmacology, 2018)
Where a name gives a salt, the structure may show the parent alone.

Tests used:
[1] = biological target: T1, recombinant full length human estrogen receptor alpha (ERα) (Homo sapiens, UniProt P03372); experiment: [3H]-ketamine saturation radioligand binding assay; settings: read-out: KD of [3H]-ketamine binding to ERα (saturation binding); nine concentrations of [3H]-ketamine, 4 nM to 400 nM; non-linear regression
[2] = biological target: T1, recombinant full length human estrogen receptor alpha (ERα); experiment: [3H]-ketamine displacement assay; assay type: binding
[3] = brains of female than in male mice; cited from earlier work
[4] = biological target: T1, recombinant full length human estrogen receptor alpha (ERα); settings: 1 nM [3H]-estradiol; competitor 4 nM - 40 mM

T1 sequence (P03372 whole entry): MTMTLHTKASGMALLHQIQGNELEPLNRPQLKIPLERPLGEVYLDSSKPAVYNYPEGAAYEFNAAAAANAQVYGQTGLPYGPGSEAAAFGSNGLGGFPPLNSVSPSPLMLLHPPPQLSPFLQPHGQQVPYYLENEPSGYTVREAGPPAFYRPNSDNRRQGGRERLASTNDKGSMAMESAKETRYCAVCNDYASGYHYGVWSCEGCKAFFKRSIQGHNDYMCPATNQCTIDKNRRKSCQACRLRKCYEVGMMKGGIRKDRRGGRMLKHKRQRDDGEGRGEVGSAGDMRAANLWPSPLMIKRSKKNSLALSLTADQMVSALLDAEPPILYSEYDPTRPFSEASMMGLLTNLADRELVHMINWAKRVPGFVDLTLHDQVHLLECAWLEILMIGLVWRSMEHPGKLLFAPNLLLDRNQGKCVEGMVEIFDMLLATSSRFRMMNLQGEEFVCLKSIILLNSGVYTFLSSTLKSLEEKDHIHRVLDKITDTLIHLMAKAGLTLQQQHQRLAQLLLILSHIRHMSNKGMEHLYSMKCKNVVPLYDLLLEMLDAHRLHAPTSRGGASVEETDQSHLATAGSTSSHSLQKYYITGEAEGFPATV

Structure (SMILES)	IC50 [2]	other results
CNC1(c2ccccc2Cl)CCCCC1=O (racemic) [[^3H]-ketamine, (±)-Ketamine [N-methyl-^3H] hydrochloride]	–	Kd [1]: 344 nM
N[C@@]1(c2ccccc2Cl)CCC[C@@H](O)C1=O [(2R,6R)-HNK]	3400 ± 200 nM	–
N[C@]1(c2ccccc2Cl)CCC[C@H](O)C1=O [(2S,6S)-HNK]	3530 ± 200 nM	–
N[C@@]1(c2ccccc2Cl)CCC[C@@H](O)C1=O [(2S,6S;2R,6R)-HNK, (2S,6S;2R,6R)-hydroxynorketamine]	–	brain concentrations, female versus male mice [3]: three fold higher
CNC1(c2ccccc2Cl)CCCCC1=O (stereo not drawn) [ketamine, Ketamine hydrochloride]	2310 ± 100 nM	displacement of [3H]-estradiol binding to ERα (in words) [4]: failed to displace
